Reference: the supplement of paper PMC13380429
Structures can show the parent of a compound that is named as a salt.

Legend:
Settings in all cases: 72 h
Vero E6 [1] = assay: relative viability EC50 (midpoint between 100% and the lowest measured viability); higher = less toxic
Calu-3 [2] = assay: as above
Caco-2 [3] = assay: as above
HepG2 [4] = assay: as above
U2OS [5] = assay: as above
Vero E6 [6] = assay: cell viability relative to DMSO; higher = less toxic
Calu-3 [7] = assay: as above
Caco-2 [8] = assay: as above
HepG2 [9] = assay: as above
U2OS [10] = assay: as above
Vero E6 [11] = assay: drug sensitivity score (DSS) for viability; higher = more toxic; extreme values may be limits of the assay
Calu-3 [12] = assay: as above
Caco-2 [13] = assay: as above
HepG2 [14] = assay: as above
U2OS [15] = assay: as above

SMILES	relative viability EC50 (Vero E6 [1])	relative viability EC50 (Calu-3 [2])	relative viability EC50 (Caco-2 [3])	relative viability EC50 (HepG2 [4])	relative viability EC50 (U2OS [5])	cell viability (Vero E6 [6]; 1 nM)	cell viability (Vero E6 [6]; 10 nM)	cell viability (Vero E6 [6]; 100 nM)	cell viability (Vero E6 [6]; 1000 nM)	cell viability (Vero E6 [6]; 10000 nM)	cell viability (Calu-3 [7]; 1 nM)	cell viability (Calu-3 [7]; 10 nM)	cell viability (Calu-3 [7]; 100 nM)	cell viability (Calu-3 [7]; 1000 nM)	cell viability (Calu-3 [7]; 10000 nM)	cell viability (Caco-2 [8]; 1 nM)	cell viability (Caco-2 [8]; 10 nM)	cell viability (Caco-2 [8]; 100 nM)	cell viability (Caco-2 [8]; 1000 nM)	cell viability (Caco-2 [8]; 10000 nM)	cell viability (HepG2 [9]; 1 nM)	cell viability (HepG2 [9]; 10 nM)	cell viability (HepG2 [9]; 100 nM)	cell viability (HepG2 [9]; 1000 nM)	cell viability (HepG2 [9]; 10000 nM)	cell viability (U2OS [10]; 1 nM)	cell viability (U2OS [10]; 10 nM)	cell viability (U2OS [10]; 100 nM)	cell viability (U2OS [10]; 1000 nM)	cell viability (U2OS [10]; 10000 nM)	drug sensitivity score (Vero E6 [11])	drug sensitivity score (Calu-3 [12])	drug sensitivity score (Caco-2 [13])	drug sensitivity score (HepG2 [14])	drug sensitivity score (U2OS [15])
CC[C@@H](c1cccc(O)c1)[C@@H](C)CN(C)C [Tapentadol (hydrochloride)]	> 10 µM	> 10 µM	> 10 µM	> 10 µM	> 10 µM	103%	108%	97.3%	97.1%	96.3%	89%	80.2%	102%	90.9%	92.5%	93.5%	99.6%	96.3%	91.7%	107%	97%	90.6%	95.2%	101%	99.9%	97%	99.7%	102%	93.9%	97.8%	0	0.1	0	0	0
Nc1nc(OCC2CCCCC2)c2nc[nH]c2n1 [NU-2058]	> 10 µM	> 10 µM	> 10 µM	> 10 µM	> 10 µM	103%	97.6%	98.2%	102%	99.7%	92.4%	106%	97.2%	109%	105%	98.4%	94.6%	96.2%	96.2%	90.3%	120%	106%	98.3%	104%	86.8%	96.2%	103%	94.6%	95.6%	96%	0	0	0	0.1	0
Oc1ncnc2[nH]ncc12 [allopurinol]	> 10 µM	> 10 µM	> 10 µM	> 10 µM	> 10 µM	107%	104%	92%	101%	93.9%	100%	98%	90.4%	98%	94.1%	91.5%	97%	104%	89.6%	100%	113%	99.6%	99.5%	103%	91.7%	100%	103%	102%	99.2%	101%	0	0	0	0	0
C=CC(=O)Nc1cccc(Nc2nc(Nc3ccc(Oc4ccnc(C(=O)NC)c4)cc3)ncc2F)c1 [CNX-774]	2.14 µM	> 10 µM	2.07 µM	2.15 µM	1.58 µM	98.1%	98.1%	103%	90.7%	26.9%	92.8%	102%	99.6%	96.3%	86.6%	98.7%	105%	103%	90.4%	30%	98.6%	104%	110%	91.4%	31.8%	92.4%	111%	98.3%	83.9%	32.9%	5.6	0.4	5.5	5.2	6.2
CNCCn1c(=O)c2cc(OC)c(OC)cc2c2cnc3cc4c(cc3c21)OCO4	0.891 µM	0.313 µM	1.04 µM	0.149 µM	1.44 µM	97.6%	94.7%	97.9%	58.6%	24.6%	95.8%	92.9%	84.8%	46.3%	30.2%	95.5%	95.9%	89.4%	58%	9%	112%	92.1%	56.8%	18.6%	-0.3%	96.1%	99.5%	97.3%	78.9%	25.9%	9.1	11.8	10	20.8	7.3
O=C(O)CCc1ccc(NCc2cccc(Oc3ccccc3)c2)cc1 [GW-9508]	> 10 µM	> 10 µM	> 10 µM	> 10 µM	> 10 µM	94.1%	96.1%	97.8%	95.2%	101%	90.9%	100%	107%	106%	104%	95.4%	98.4%	102%	112%	106%	97.1%	101%	96.9%	99.8%	96%	91.9%	97%	98.6%	102%	97.6%	0	0	0	0	0
C[S+]([O-])c1ccc(-c2nc(-c3ccc(F)cc3)c(-c3ccncc3)[nH]2)cc1 (stereo not given)	> 10 µM	> 10 µM	> 10 µM	> 10 µM	> 10 µM	99%	112%	97.2%	110%	92.3%	106%	101%	98.2%	98.4%	101%	111%	97%	103%	95.1%	84%	104%	105%	96.1%	107%	91.8%	104%	102%	102%	95.5%	96.9%	0	0	0.8	0	0
O=[N+]([O-])O[C@H]1CO[C@H]2[C@@H]1OC[C@H]2O[N+](=O)[O-] [isosorbide-dinitrate]	> 10 µM	> 10 µM	> 10 µM	> 10 µM	> 10 µM	94.2%	102%	92.5%	97.1%	108%	99.4%	101%	101%	101%	107%	99.1%	95%	102%	90.5%	98.7%	90.6%	117%	102%	113%	101%	100%	96.1%	100%	99.8%	99%	0	0	0	0	0
Cc1ncc([N+](=O)[O-])n1CC(O)CCl (stereo not given) [ornidazole]	> 10 µM	> 10 µM	> 10 µM	> 10 µM	> 10 µM	101%	96.6%	97.4%	96%	104%	99.9%	95.1%	93.8%	96.1%	108%	103%	101%	99.1%	102%	98.4%	101%	98%	91.6%	107%	99.7%	91.3%	97.1%	91.8%	95.8%	102%	0	0	0	0	0
Cc1cc2nc3c(=O)[nH]c(=O)nc-3n(C[C@H](O)[C@H](O)[C@H](O)CO)c2cc1C [riboflavin]	> 10 µM	> 10 µM	> 10 µM	> 10 µM	> 10 µM	96.6%	91.9%	96.3%	94.2%	95.4%	102%	104%	86%	107%	92.2%	99%	95.3%	92.7%	107%	96.8%	95.9%	85%	93.7%	93.4%	93%	97.4%	101%	96.2%	102%	94.6%	0	0	0	0	0
COc1cc2c(c(OC)c1OC)-c1c(cc3c(c1OC)OCO3)CC(C)C(C)C2 (stereo not given) [schisandrin-B]	> 10 µM	> 10 µM	> 10 µM	> 10 µM	> 10 µM	96%	98.5%	93.4%	96.1%	101%	96.3%	83.3%	94.5%	105%	90.1%	97.5%	99.5%	98.9%	100%	77.4%	89.1%	99.3%	95.8%	105%	101%	101%	91.8%	102%	97.3%	93.5%	0	0	0.8	0	0
C=C(c1ccc(C(=O)O)cc1)c1cc2c(cc1C)C(C)(C)CCC2(C)C [bexarotene]	> 10 µM	> 10 µM	> 10 µM	> 10 µM	> 10 µM	100%	102%	96.6%	94.3%	98%	92.5%	95.8%	102%	96.7%	103%	106%	90.1%	95.2%	86.4%	86.3%	94.9%	96.8%	107%	99.7%	112%	94%	97.9%	102%	95%	92.7%	0	0	0.9	0	0
Cc1c(C(=O)NC2CCCCC2)sc2nc3ccc(N)cc3n12	> 10 µM	> 10 µM	> 10 µM	> 10 µM	> 10 µM	99.4%	103%	96.9%	103%	107%	93.7%	109%	83.3%	97.4%	103%	105%	97%	101%	103%	104%	94.1%	101%	92.8%	104%	107%	102%	94.6%	96.4%	98.1%	102%	0	0	0	0	0
